Among the test systems are KM12 colon; SN12C renal; HL-60(TB) leukemia; M19-MEL melanoma; LOX IMVI melanoma; MDA-MB-435; OVCAR-5 ovarian; MALME-3M melanoma; NCI-H522 lung; KM20L2 colon; A549 NSCLC.
What all share (assay): DTP human tumour cell line panel, 48 h

Structures are written as SMILES. Values joined by “and” are separate entries in the source; they are usually repeats but may differ in a detail not shown here. Identical values can stand only once.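 Cultured in 96-well plates, cells were exposed to test compound for 48 hours across five concentrations. TGI is the concentration that stops growth completely.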

The source of these data is PubChem BioAssay (NCI).

In general, TGI refers to the concentration giving total growth inhibition.

Turning to `COC1=C(C)C(=O)C2=C(C1=O)C1C3CC4=C(C(=O)C(OC)=C(C)C4=O)C(CNC(=O)C(C)O)N3C(C#N)C(C2)N1C` (stereo not drawn), the TGI was 0.827 µM in the assay on KM12 colon; 1.72 µM with SN12C renal; < 0.01 µM in the assay on HL-60(TB) leukemia; < 0.01 µM in the assay on M19-MEL melanoma; 0.0263 µM with LOX IMVI melanoma; < 0.01 µM with MDA-MB-435. Further, the TGI with OVCAR-5 ovarian is 0.0888 µM; with MALME-3M melanoma, < 0.0139 µM; with NCI-H522 lung, < 0.01 µM; with KM20L2 colon it was 3.1 µM.

As for `O=P(Nc1ccccc1)(Oc1ccccc1)N(CCCl)CCCl` (stereo not drawn), the total growth inhibition concentration (TGI) in the assay on KM12 colon, with SN12C renal, with HL-60(TB) leukemia, in the assay on M19-MEL melanoma, with OVCAR-5 ovarian and in the assay on MALME-3M melanoma was > 100 µM in each case. Also, the total growth inhibition concentration (TGI) with NCI-H522 lung was 28.8 µM; in the assay with KM20L2 colon, > 100 µM; with A549 NSCLC, > 100 µM.

On to `CC(=O)O[C@H]1C(=O)[C@@]2(C)[C@H]([C@H](OC(=O)c3ccccc3)[C@]3(O)C[C@H](OC(=O)[C@H](O)[C@@H](NC(=O)c4ccccc4)c4cccc(N(C)C)c4)C(C)=C1C3(C)C)[C@]1(OC(C)=O)CO[C@@H]1C[C@@H]2O`, for which the concentration for total growth inhibition (TGI) in the assay with KM12 colon was > 24.7 µM; in the assay on SN12C renal, > 75 µM; in the assay on HL-60(TB) leukemia, 0.0414 µM; in the assay on LOX IMVI melanoma, > 75 µM; with MDA-MB-435 it was 0.0388 µM; in the assay on OVCAR-5 ovarian it was > 15.8 µM. The TGI is > 67.1 µM in the assay on MALME-3M melanoma, 3.69 µM with NCI-H522 lung and > 75 µM in the assay on A549 NSCLC.

With `COc1ccc(-c2ncn(C[Si](C)(C)C)c2-c2ccc(OC)cc2)cc1`, the total growth inhibition concentration (TGI) in the assay on KM12 colon amounted to 19.9 µM; with SN12C renal it was 24.3 µM; in the assay on HL-60(TB) leukemia, 4.57 µM; in the assay with LOX IMVI melanoma, 21 µM; with MDA-MB-435 it was 13 µM; with OVCAR-5 ovarian, 18.3 µM. For the same compound, the TGI in the assay on MALME-3M melanoma was determined as 23.7 µM; with NCI-H522 lung, 16.2 µM; in the assay with A549 NSCLC, 27.2 µM.

In the case of `CN(CCCNC(=O)c1nn(C)c2c1Cc1ccccc1-2)CCCNC(=O)c1nn(C)c2c1Cc1ccccc1-2`, the TGI amounted to 35.4 µM with KM12 colon; 33.8 µM in the assay with SN12C renal; 10.8 µM in the assay with HL-60(TB) leukemia; 21.1 µM in the assay on LOX IMVI melanoma; 27 µM in the assay with MDA-MB-435; 40.8 µM with OVCAR-5 ovarian. Also, the TGI stood at 37.2 µM in the assay with MALME-3M melanoma, 40.6 µM in the assay on NCI-H522 lung and 33.3 µM with A549 NSCLC.

Consider `CCCCCCCCP(=O)(O)OP(=O)(O)OCC1OC(n2ccc(N)nc2=O)C(O)C1O` (stereo not drawn), for which the TGI in the assay with KM12 colon, in the assay with SN12C renal, in the assay with HL-60(TB) leukemia, in the assay with LOX IMVI melanoma, in the assay with MDA-MB-435 and with OVCAR-5 ovarian was > 100 µM in each case. Besides, the concentration for total growth inhibition (TGI) with MALME-3M melanoma, in the assay on NCI-H522 lung and in the assay with A549 NSCLC was > 100 µM each time.

As for `CN(C)CCNC(=O)c1cccc2nc3c(C(=O)NCCN(C)C)cccc3nc12`, the TGI with KM12 colon came out at 8.82 µM; in the assay with SN12C renal, 5.58 µM; in the assay on HL-60(TB) leukemia it was 3.96 µM; in the assay with LOX IMVI melanoma, 1.49 µM; in the assay with MDA-MB-435 it was 2.59 µM; with OVCAR-5 ovarian, 13.6 µM. The results for the TGI in the assay on MALME-3M melanoma, in the assay on NCI-H522 lung and in the assay on A549 NSCLC were 3.59 µM, 1.81 µM and 6.01 µM, respectively.

Turning to `Cc1ccc(S(=O)(=O)N/N=C2\CC3CC4CCC2C4C3)cc1` (stereo not drawn), the TGI with KM12 colon, with SN12C renal, in the assay on HL-60(TB) leukemia, in the assay on LOX IMVI melanoma, in the assay with MDA-MB-435 and in the assay with OVCAR-5 ovarian was > 100 µM throughout. Further, the TGI in the assay on MALME-3M melanoma, in the assay with NCI-H522 lung and in the assay with A549 NSCLC was > 100 µM in each case.

Regarding `Cc1ccc(N=Nc2c(O)ccc3cc(S(=O)(=O)O)ccc23)cc1`, the TGI in the assay on KM12 colon was > 100 µM; in the assay with SN12C renal, > 100 µM; in the assay with HL-60(TB) leukemia it was > 100 µM; in the assay with LOX IMVI melanoma, > 100 µM and 38.2 µM; in the assay on MDA-MB-435, > 100 µM; with OVCAR-5 ovarian it was > 100 µM. The TGI with MALME-3M melanoma, with NCI-H522 lung and with A549 NSCLC was > 100 µM each time.

Take `COC(=O)c1c2c(cc3c1CC1(Cc4cc5c(c(C(C)=O)c4C1)CCCC5)C3)CCCC2` (stereo not drawn): the TGI is > 100 µM in the assay with KM12 colon; > 100 µM with SN12C renal; 46.3 µM in the assay with HL-60(TB) leukemia; > 100 µM with LOX IMVI melanoma; > 100 µM with MDA-MB-435; > 100 µM in the assay with OVCAR-5 ovarian. The concentration for total growth inhibition (TGI) in the assay on MALME-3M melanoma, in the assay on NCI-H522 lung and in the assay with A549 NSCLC was > 100 µM each time.

Take `O=C(N/N=C\c1cccc2ccccc12)Nc1cccc2ccccc12`: the total growth inhibition concentration (TGI) in the assay on KM12 colon is > 100 µM; in the assay with SN12C renal it was > 100 µM; in the assay on HL-60(TB) leukemia, 60.8 µM; in the assay on LOX IMVI melanoma it was > 100 µM; in the assay on MDA-MB-435, 24.3 µM; in the assay with OVCAR-5 ovarian, > 100 µM. The TGI in the assay on MALME-3M melanoma, in the assay on NCI-H522 lung and in the assay on A549 NSCLC was > 100 µM each time.

With `CCOC(=O)CCN1C(=O)C(=O)N(c2ccc(OC)cc2)C1=S`, the TGI with KM12 colon, with SN12C renal, with HL-60(TB) leukemia, in the assay with LOX IMVI melanoma, in the assay with MDA-MB-435 and with OVCAR-5 ovarian was > 100 µM each time. Also, the TGI in the assay on MALME-3M melanoma, in the assay with NCI-H522 lung and with A549 NSCLC was > 100 µM in each case.

`COC(=O)c1c(C)cccc1C1CN=NC12Cc1cc(C)cc(C)c1C2=O` (stereo not drawn): the TGI in the assay on KM12 colon was > 100 µM; with SN12C renal, > 100 µM; with HL-60(TB) leukemia, 44.2 µM; in the assay with LOX IMVI melanoma, 41.5 µM; in the assay with MDA-MB-435, > 100 µM; with OVCAR-5 ovarian it was > 100 µM. Further, the TGI in the assay on MALME-3M melanoma is > 100 µM; in the assay on NCI-H522 lung, 41.2 µM; in the assay on A549 NSCLC, > 100 µM.

With `Cc1c(C)c(C)c(-n2c(=O)n(C)c(=O)n2-c2cc(C(C)(C)C)cc(C(C)(C)C)c2O)c(C)c1C`, the TGI with KM12 colon was > 45.3 µM; with SN12C renal, 21.7 µM; in the assay with HL-60(TB) leukemia it was 11.4 µM; with LOX IMVI melanoma it was 26.8 µM; with MDA-MB-435, 27.2 µM; in the assay on OVCAR-5 ovarian it was 26.9 µM. Moreover, the TGI in the assay on MALME-3M melanoma is 24.9 µM; in the assay on NCI-H522 lung, 14.6 µM; with A549 NSCLC, 17.3 µM.

In the case of `C#C[C@@]1(O)CCCC2=CC3(CC[C@]21C)SCCS3`, the TGI in the assay on KM12 colon, in the assay with SN12C renal, in the assay on HL-60(TB) leukemia, in the assay with LOX IMVI melanoma, in the assay with MDA-MB-435 and in the assay with OVCAR-5 ovarian was > 100 µM throughout. Moreover, the concentration for total growth inhibition (TGI) in the assay on MALME-3M melanoma, with NCI-H522 lung and with A549 NSCLC was > 100 µM throughout.

For the compound `CC1(C)C2CCC1C(=O)[C@@]1(C=CC(=O)CC1)C2` (stereo partly drawn), the total growth inhibition concentration (TGI) in the assay with KM12 colon, in the assay with SN12C renal, in the assay on HL-60(TB) leukemia, with LOX IMVI melanoma, in the assay with MDA-MB-435 and in the assay on OVCAR-5 ovarian was > 100 µM each time. For the same compound, the TGI in the assay on MALME-3M melanoma, in the assay with NCI-H522 lung and with A549 NSCLC was > 100 µM each time.

On to `C=CC(C)C1(CCCOCc2ccccc2)C(=S)N2CCC3(CC24CCCC14)OCCO3` (stereo not drawn), for which the total growth inhibition concentration (TGI) is > 100 µM in the assay with KM12 colon; > 100 µM in the assay with SN12C renal; 5.2 µM in the assay with HL-60(TB) leukemia; > 100 µM in the assay with M19-MEL melanoma; > 100 µM in the assay with LOX IMVI melanoma; > 100 µM with OVCAR-5 ovarian. Also, the TGI in the assay on MALME-3M melanoma is > 100 µM; in the assay on NCI-H522 lung it was 64.4 µM; in the assay on KM20L2 colon it was > 100 µM; in the assay with A549 NSCLC it was > 100 µM.

Take `CNC(=O)SCC(NC(=O)CCC(N)C(=O)O)C(=O)NCC(=O)O` (stereo not drawn): the TGI is > 100 µM in the assay with KM12 colon; > 100 µM in the assay on SN12C renal; > 31.6 µM in the assay on HL-60(TB) leukemia; > 100 µM in the assay on M19-MEL melanoma; > 100 µM in the assay with LOX IMVI melanoma; > 100 µM in the assay on OVCAR-5 ovarian. Moreover, the TGI in the assay on MALME-3M melanoma, with NCI-H522 lung, with KM20L2 colon and in the assay with A549 NSCLC was > 100 µM in each case.

As to `CCCCSC1=N/C(=C\c2ccc(N(C)C)cc2)C(=O)N1`, the TGI was > 100 µM in the assay with KM12 colon; 33.5 µM with SN12C renal; > 100 µM in the assay with HL-60(TB) leukemia; > 100 µM in the assay on LOX IMVI melanoma; > 100 µM in the assay with MDA-MB-435; > 100 µM in the assay with OVCAR-5 ovarian. Further, the TGI with MALME-3M melanoma is > 100 µM; in the assay on NCI-H522 lung, 73.9 µM; in the assay on A549 NSCLC, 75.2 µM.

Turning to `CCN(CC)c1ccc(/C=C2\CCc3ccc([N+](=O)[O-])cc3C2=O)cc1`, the TGI is > 100 µM in the assay with KM12 colon; > 100 µM in the assay with SN12C renal; 5.33 µM in the assay on HL-60(TB) leukemia; > 100 µM with LOX IMVI melanoma; 0.744 µM in the assay with MDA-MB-435; > 100 µM with OVCAR-5 ovarian. For the same compound, the TGI in the assay on MALME-3M melanoma, in the assay with NCI-H522 lung and in the assay on A549 NSCLC was > 100 µM throughout.
